The record followed here is ChEMBL document CHEMBL5108052, “Histone Deacetylase and Enhancer of Zeste Homologue 2 Dual Inhibitors Presenting a Synergistic Effect for the Treatment of Hematological Malignancies” (J Med Chem, 2022).

Structures are written as SMILES. pIC50, pKd: −log10 of the molar value.

As a reminder, the pIC50 is the negative decadic logarithm of the IC50, by convention in mol/L. A high value points to a small IC50. One may read the pKd as the negative decadic logarithm of the Kd, by convention in mol/L. The term koff denotes the first-order rate constant of dissociation. As usually defined, the IC50 is the point on the concentration scale where inhibition reaches its midpoint. As a reminder, the half-life is the time needed for the level to fall by half in the phase considered.

Series [1] relates to MV4-11. In words: cells. Conditions: Homo sapiens, MV4-11, 72 h.
Series [2] deals with T1, Protein deacetylase HDAC6 (Homo sapiens, UniProt Q9UBN7).
T1 sequence (Q9UBN7 whole entry): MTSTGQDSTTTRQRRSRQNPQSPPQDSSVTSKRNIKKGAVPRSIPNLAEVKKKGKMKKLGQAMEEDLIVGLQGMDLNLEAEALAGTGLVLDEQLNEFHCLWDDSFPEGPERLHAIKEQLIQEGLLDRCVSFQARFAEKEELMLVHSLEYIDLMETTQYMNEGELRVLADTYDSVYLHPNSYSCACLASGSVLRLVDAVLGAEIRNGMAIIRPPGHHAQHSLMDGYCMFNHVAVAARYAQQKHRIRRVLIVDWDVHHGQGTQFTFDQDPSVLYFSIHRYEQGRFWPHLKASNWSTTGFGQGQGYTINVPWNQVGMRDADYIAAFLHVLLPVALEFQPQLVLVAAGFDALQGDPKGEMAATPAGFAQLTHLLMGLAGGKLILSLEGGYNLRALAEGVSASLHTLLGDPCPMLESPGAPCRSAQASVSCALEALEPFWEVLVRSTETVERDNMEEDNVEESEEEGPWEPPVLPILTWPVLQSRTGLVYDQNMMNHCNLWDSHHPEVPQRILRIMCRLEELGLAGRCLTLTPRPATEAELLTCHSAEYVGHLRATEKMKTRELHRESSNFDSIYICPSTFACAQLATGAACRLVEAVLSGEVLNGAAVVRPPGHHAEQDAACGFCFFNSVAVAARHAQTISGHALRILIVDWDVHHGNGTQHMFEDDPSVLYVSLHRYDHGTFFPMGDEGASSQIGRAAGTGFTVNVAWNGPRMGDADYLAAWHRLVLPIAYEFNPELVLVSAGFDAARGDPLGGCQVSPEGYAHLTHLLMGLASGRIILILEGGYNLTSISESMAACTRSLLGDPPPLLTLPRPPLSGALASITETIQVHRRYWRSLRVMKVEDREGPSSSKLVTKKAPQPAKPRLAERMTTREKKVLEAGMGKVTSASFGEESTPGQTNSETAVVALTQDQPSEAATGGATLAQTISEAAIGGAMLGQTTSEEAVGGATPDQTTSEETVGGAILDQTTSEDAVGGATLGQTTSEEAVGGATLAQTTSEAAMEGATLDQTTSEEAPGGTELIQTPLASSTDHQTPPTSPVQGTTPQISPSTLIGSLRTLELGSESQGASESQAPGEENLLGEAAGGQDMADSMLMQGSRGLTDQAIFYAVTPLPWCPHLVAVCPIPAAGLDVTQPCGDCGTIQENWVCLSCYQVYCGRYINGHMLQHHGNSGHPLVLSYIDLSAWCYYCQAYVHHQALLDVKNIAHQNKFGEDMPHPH
In words: Inhibition of HDAC6 (unknown origin) preincubated for 5 mins followed by substrate addition and measured after 30 mins by multimode microplate reader analysis.

For series [3], the system named is HCT-116. As to the kind of experiment: cells. Conditions: Homo sapiens, HCT-116, 72 h.
The target of series [4] is Histone deacetylase 1 (Homo sapiens, UniProt Q13547). As to the kind of experiment: Inhibition of HDAC1 (unknown origin) preincubated for 5 mins followed by substrate addition and measured after 30 mins by multimode microplate reader analysis. Conditions: for IC50: time 35.0 min.
Chain of Histone deacetylase 1 (Q13547 whole entry): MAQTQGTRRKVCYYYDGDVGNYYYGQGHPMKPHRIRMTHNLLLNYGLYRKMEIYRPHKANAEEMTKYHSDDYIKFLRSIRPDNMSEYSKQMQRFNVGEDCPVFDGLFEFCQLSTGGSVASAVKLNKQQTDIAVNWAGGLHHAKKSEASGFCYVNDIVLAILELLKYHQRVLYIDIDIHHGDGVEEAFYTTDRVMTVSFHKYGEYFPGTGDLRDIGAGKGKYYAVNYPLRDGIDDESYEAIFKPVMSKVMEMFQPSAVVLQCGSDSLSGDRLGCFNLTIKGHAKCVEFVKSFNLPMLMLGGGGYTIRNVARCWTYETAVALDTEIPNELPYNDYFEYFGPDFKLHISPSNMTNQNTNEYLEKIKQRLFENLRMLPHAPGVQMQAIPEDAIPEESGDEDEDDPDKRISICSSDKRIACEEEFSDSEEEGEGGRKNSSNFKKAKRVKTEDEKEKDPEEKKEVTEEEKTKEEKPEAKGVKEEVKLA
Series [5] is described as follows: Binding affinity to recombinant PRC2 complex (unknown origin) incubated for 90 seconds by surface plasmon resonance assay. Further details: species or system Homo sapiens. Background: In SPR one partner is held on a chip, and binding of the other changes the refractive index at the surface.
Series [6] deals with SU-DHL10. As to the kind of experiment: cells. Conditions: Homo sapiens, SU-DHL10, 72 h.
The nature of series [7]: Binding affinity to recombinant PRC2 complex (unknown origin) assessed as dissociation rate constant incubated for 90 seconds by surface plasmon resonance assay. Further details: species or system Homo sapiens.
For series [8], the system named is HL-60. In words: cells. Conditions: Homo sapiens, HL-60, 72 h.
The subject of series [9] is MDA-MB-231. As to the kind of experiment: cells. Conditions: Homo sapiens, MDA-MB-231, 72 h.
The nature of series [10]: Metabolic stability in human liver microsomes assessed as half life measured after 5 mins in presence of NADPH and UDPGA by LC-MS/MS analysis. In kind it is ADME, Microsome. (In general: Microsomes from liver hold many membrane-bound enzymes, among them those of drug oxidation.)
Series [11] concerns MV4-11. In words: animal or person. Type of series: functional, Homo sapiens. Conditions: Mus musculus, MV4-11, 480 h, route ip, time 20 day, read-out: TGI.
Series [12] deals with SU-DHL10. Conditions: time 72 hrs.
Series [13] relates to HL-60. Conditions: time 72 hrs.
In series [14] the test system is HCT-116. Conditions: time 72 hrs.
Series [15] concerns MDA-MB-231. Conditions: time 72 hrs.
The species named for series [16] is Homo sapiens. Conditions: time 90.0 sec.
Series [17] has as its system MV4-11. Conditions: time 72 hrs.

Turning to `CCN(c1cc(-c2ccc(N3CCN(CCCCCCCCC(=O)NO)CC3)nc2)cc(C(=O)NCc2c(C)cc(C)[nH]c2=O)c1C)C1CCOCC1`, the negative logarithm of the IC50 (pIC50) in series [1] is 5.82; in series [2] it was 5.72; in series [3], 5.39; in [4], 5.40; in series [6], 5.73; in series [8], 5.78. Further, the negative-log IC50 (pIC50) in series [9] is 5.29. Also, in [5], the pKd is 6.36. The off-rate (koff) in series [7] was determined as 0.045 s⁻¹.

Turning to `Cc1cc(C)c(CNC(=O)c2cc(-c3ccc(N4CCN(C(=O)OC(C)(C)C)CC4)nc3)cc(NCCCCCCCC(=O)NO)c2C)c(=O)[nH]1`, the negative-log IC50 (pIC50) in series [1] was 5.32; in [2] it was 5.71; in series [3], 5.29; in series [6], 5.82; in [8], 5.69; in [9] it was 5.17. Also, in series [4], the concentration for half-maximal inhibition (IC50) was 2.05 µM. Also, the pKd in series [5] was 5.86. For the same molecule, the koff in series [7] was found to be 0.099 s⁻¹.

For the molecule `CCN(c1cc(-c2ccc(N3CCN(c4ncc(C(=O)NO)cn4)CC3)nc2)cc(C(=O)NCc2c(C)cc(C)[nH]c2=O)c1C)C1CCOCC1`, the pIC50 in series [1] is 6.32; in series [2], 5.59; in series [3], 5.18; in [4], 6.27; in series [6] it was 6.09; in series [8] it was 5.73. Also, the negative logarithm of the IC50 (pIC50) in series [9] is 5.11. Also, the pKd in series [5] is 6.54. In addition, the koff in [7] turned out to be 0.025 s⁻¹.

For `CC[C@@H](C)n1cc(C)c2c(C(=O)NCc3c(C)cc(C)[nH]c3=O)cc(-c3ccc(N4CCN(CCCCCCCCC(=O)NO)CC4)nc3)cc21`, the negative logarithm of the IC50 (pIC50) in series [1] was 6.13; in [2], 5.55; in series [3] it was 5.43; in series [4] it was < 5.00; in series [6], 5.69; in series [8], 6.07. In addition, the negative-log IC50 (pIC50) in series [9] is 5.27. Further, the pKd in series [5] is 7.12. Besides, the off-rate (koff) in series [7] is 0.0078 s⁻¹.

Consider `Cc1cc(C)c(CNC(=O)c2cc(-c3ccc(N4CCN(c5ncc(C(=O)Nc6ccccc6N)cn5)CC4)nc3)cc3c2cnn3C(C)C)c(=O)[nH]1`, for which the half-life in [10] is 17.7 min.

On to `Cc1cc(C)c(CNC(=O)c2cc(-c3ccc(N4CCN(CCCCCCCCC(=O)NO)CC4)nc3)cc3c2cnn3C(C)C)c(=O)[nH]1`, for which the negative-log IC50 (pIC50) in series [1] was 6.24; in series [2] it was 6.41; in series [3], 5.65; in [4] it was 6.15; in series [6] it was 5.91; in [8], 5.91. The molecule also showed a negative logarithm of the IC50 (pIC50) in [9] of 5.29. For the same molecule, the negative logarithm of the Kd (pKd) in [5] was 7.01. In addition, the dissociation rate constant (koff) in series [7] was determined as 0.044 s⁻¹.

On to `Cc1cc(C)c(CNC(=O)c2cc(-c3ccc(N4CCN(C(=O)OC(C)(C)C)CC4)nc3)cc(NCCCCCCC(=O)NO)c2C)c(=O)[nH]1`, for which the pIC50 in series [1] was 5.51; in series [2] it was 5.70; in series [3], 4.87; in series [6], 5.39; in series [8] it was 4.74; in [9], 4.81. Besides, the IC50 in series [4] was determined as 1.89 µM. Further, the negative-log Kd (pKd) in series [5] is 5.11. Further, the off-rate constant (koff) in series [7] worked out at 0.13 s⁻¹.

On to `Cc1cc(C)c(CNC(=O)c2cc(-c3ccc(N4CCN(C(=O)CCCCCCC(=O)NO)CC4)nc3)cc3c2cnn3C(C)C)c(=O)[nH]1`, for which the negative logarithm of the IC50 (pIC50) was 5.94 in series [1]; 7.09 in [2]; 5.15 in [3]; 6.03 in [4]; 5.76 in [6]; 5.08 in [8]. For the same molecule, the pIC50 in [9] was 5.06. For the same molecule, in series [5], the pKd was 7.08. In addition, the dissociation rate constant (koff) in series [7] is 0.023 s⁻¹.

For the molecule `Cc1cc(C)c(CNC(=O)c2cc(-c3ccc(N4CCN(Cc5ccc(C(=O)NO)o5)CC4)nc3)cc3c2cnn3C(C)C)c(=O)[nH]1`, the negative logarithm of the IC50 (pIC50) was 5.09 in series [1]; 5.05 in series [2]; < 4.70 in series [3]; < 5.00 in series [4]; 4.82 in [6]; < 4.70 in series [8]. For the same molecule, in [9], the negative-log IC50 (pIC50) is < 4.70. In series [5], the pKd was 6.39. The koff in [7] was determined as 0.042 s⁻¹.

Regarding `CC[C@@H](C)n1cc(C)c2c(C(=O)NCc3c(C)cc(C)[nH]c3=O)cc(-c3ccc(N4CCNCC4)nc3)cc21`, the negative-log IC50 (pIC50) is 5.29 in series [1]; 5.05 in [3]; 5.14 in [6]; 4.92 in series [8]; 4.82 in series [9]. Also, in [11], the inhibition in vivo at 100 mg/kg was determined as 52.7%. Further, the CI in [12] worked out at 0.8; in series [13], 0.65; in series [14], 0.91; in [15] it was 1.2; in series [17], 0.38. Also, in [16], the Ka is 2.52 10^4/M/s. The negative-log Kd (pKd) in series [5] is 7.14.

`Cc1cc(C)c(CNC(=O)c2cc(-c3ccc(N4CCN(C(C)C)CC4)nc3)cc3c2cnn3C(C)C)c(=O)[nH]1`: the negative-log IC50 (pIC50) was 4.95 in [1]; < 4.70 in series [3]; < 4.70 in series [6]; < 4.70 in series [8]; < 4.70 in series [9]. The CI in series [12] is reported as 0.78; in series [13] it was 0.77; in series [14], 0.89; in series [15] it was 1.6; in series [17], 0.43. Besides, the negative-log Kd (pKd) in series [5] is 7.68.

For `Cc1cc(C)c(CNC(=O)c2cc(-c3ccc(N4CCN(C(=O)OC(C)(C)C)CC4)nc3)cc(NCCCCC(=O)NO)c2C)c(=O)[nH]1`, the pIC50 was 5.21 in series [1]; < 5.00 in series [2]; < 4.70 in series [3]; 4.92 in [6]; 4.85 in series [8]; < 4.70 in [9]. Besides, the half-maximal inhibitory concentration (IC50) in [4] is 2.84 µM. Also, the pKd in series [5] was 6.62. Further, in series [7], the off-rate (koff) was found to be 0.049 s⁻¹.
